Reference: US12435380B2, “Compositions and methods for the diagnosis and treatment of ALT cancer” (Texas Tech University System, priority 2018, dated 2025)
Entries after “also recorded” stand apart in the source; their conditions may differ.

Tests used:
[1] = system: ALT+ neuroblastoma cell lines; test: DIMSCAN cytotoxicity, neuroblastoma cell lines; type: cell-based, human
Experimental: FIG. 6 is a graph of survival fraction versus PRIMA-1MET concentration and illustrates high cytotoxicity of PRIMA-1MET in ALT+ versus TERT+(ALT negative) NB cell lines. FIG. 6 illustrates NB 5% O2. PRIMA-1MET dose response curves were analyzed using the DIMSCAN cytotoxicity assay system in 4 ALT+ neuroblastoma cell lines compared to 3 non-ALT, but TP53-mut cell lines.
FIGS. 7A and 7B are graphs of survival fraction versus PRIMA-1MET concentration and illustrate cytotoxicity of PRIMA-1MET in ALT+NB cell lines as enhanced by hypoxia. PRIMA-1MET cytotoxicity was assessed for 3 ALT neuroblastoma cell lines in ambient air culture conditions (20% O2) compared with bone marrow level hypoxia (5% O2).

[2] = system: ALT lymphoma cell lines TX-LY-064hnb, TX-LY-245h, COG-LY-357h; test: DIMSCAN cytotoxicity, lymphoma cell lines; type: cell-based, human; details: vs TERT+ lines SUP-TI and COG-LY-459, 5% O2, p53 dysfunction
Description: FIGS. 9A and 9B are graphs of survival fraction versus PRIMA-1MET concentration for ALT+p53 non-functional lymphoma 5% O2 and TERT+p53 non-functional lymphoma 5% O2, respectively. […] All lines had some form of p53 dysfunction.

[3] = system: ALT rhabdomyosarcoma cell lines; test: DIMSCAN cytotoxicity, rhabdomyosarcoma cell lines; type: cell-based, human; details: 5% O2
Experimental: FIGS. 8A and 8B are graphs of survival fraction versus PRIMA-1MET concentration and illustrate Cytotoxicity of PRIMA-1MET in ALT vs TERT+ Rhabdomyosarcoma. FIG. 8A illustrates ALT+ rhabdomyosarcoma grown in 5% O2 and FIG. 8B illustrates TERT+ rhabdomyosarcoma grown in 5% O2. Cytotoxicity of PRIMA-1MET was assessed for ALT and non-ALT (TERT+) rhabdomyosarcoma cell lines using DIMSCAN.

[4] = system: ALT+ neuroblastoma xenografts CHLA-90m and COG-N-669x; test: ALT neuroblastoma xenografts, tumor volume; parameters: species or system athymic nude mice; details: mouse, in vivo
Experimental: FIGS. 22A and 22B are graphs tumor volume versus time for CHLA-90m and COG-N-669x. The neuroblastoma cell lines CHLA-90m and COG-N-669x were injected into athymic nude mice and drugged with PRIMA-1Met and BSO.

[5] = system: ALT+ cell lines; test: PRIMA-1MET IC50 with ATM or ATR kinase inhibitor, ALT+ lines; type: cell-based, human; details: with ATM kinase inhibitor (ATMi) or ATR kinase inhibitor (ATRi)
Description: (§1) FIGS. 21A and 21B illustrate effect of inhibition of ATM or ATR kinase on sensitivity of ALT+vs TERT+(ALT-negative) using ATM kinase inhibitor (ATMi) or ATR kinase inhibitor (ATRi) ir ALT+ and TERT+ cell lines;
(§2) FIGS. 21A and 21B illustrate inhibition of kinase inhibitors for ALT+ and TERT+ cell lines Kinase Inhibitors antagonize PRIMA-1MET in ALT+ cell lines.

[6] = system: ALT cell lines from various histologies; test: Summary of cytotoxicity (IC50/IC90), ALT vs non-ALT cell lines of all histologies; type: cell-based, human
Description: […] are graphs of PRIMA-1MET cytotoxicity of ALT vs non-ALT cell lines and illustrate PRIMA-1MET IC50/IC90 for all tested cancers. FIG. 8A illustrates IC50 20% O2, and FIG. 8B illustrates IC90 20% O2. IC50 5% O2, and IC90 5% O2 were also observed. Cytotoxicity data on all ALT cell lines from various histologies were compared with non-ALT cell lines of the same histologies, presented as inhibitory+cytotoxic concentrations for 50% (IC50) and 90% (IC90) of the cells.
FIGS. 11A and 11B are graphs showing cytotoxicity of ALT and non-ALT cell lines for IC50 and IC90. Cytotoxicity data on all ALT cell lines from various histologies compared with non-ALT cell lines of the same histologies. The data is presented as inhibitory+cytotoxic concentrations for 50% (IC50) and 90% (IC90) of the cells.

[7] = system: p21 and NOXA; test: Immunoblots of apoptotic proteins after PRIMA-1MET; type: cell-based, human; details: TP53-mutated, 20 uM, 6, 12 and 24 hours
Experimental: FIGS. 5A and 5B are quantitative representations of immunoblots of apoptotic proteins with three ALT+ cell lines and two TERT+ lines. All cell lines were treated with 20 uM of PRIMA-1MET for 6, 12 and 24 hours. All cell lines were known to have TP53-inactivating mutations. […] We hypothesize this is due to the constitutive activation of ATM in ALT positive cell lines, which will trigger senescence and apoptosis once PRIMA-1MET refolds mutant TP53.

[8] = system: ALT neuroblastoma cell line CHLA-90; test: PRIMA-1MET sensitivity after shRNA knockdown of ATM; type: cell-based, human
Description: FIGS. 20A and 20B illustrate data for cell line CHLA-90. shRNA knockdown of ATM in the ALT neuroblastoma cell line CHLA-90 led to hyper-resistance to PRIMA-1MET. We hypothesize this is due to the loss of constitutive activation of ATM in ALT positive cell lines which would trigger senescence and apoptosis once PRIMA-1MET refolds mutant p53 in the presence of ATM.

[9] = system: ALT+ p53 non-functional adult cell lines; test: Cytotoxicity, ALT+ adult cell lines; type: cell-based, human; details: 5% O2
Description: FIG. 10 is a graph of survival fraction versus PRIMA-1MET concentration for ALT+ adult cell lines showing the high activity of PRIMA1MET against ALT breast cancer, colorectal cancer, ovarian cancer, lung cancer, and leiomyosarcoma cell lines;
FIG. 10 is a graph of survival fraction versus PRIMA-1MET concentration for ALT+p53 non-functional adult cell lines 5% O2. All lines had some form of p53 dysfunction.

[10] = cited from earlier work
[11] = system: TERT+ cell lines; test: PRIMA-1MET IC50 with ATM or ATR kinase inhibitor, TERT+ lines; type: cell-based, human; details: with ATM kinase inhibitor (ATMi) or ATR kinase inhibitor (ATRi)
Description: as §1, §2

[12] = system: ALT cell lines; test: PRIMA-1 activity in ALT cell lines from cancers other than neuroblastoma; type: cell-based, human; details: all ALT cell lines examined to date
[13] = system: ALT neuroblastoma cell lines; test: PRIMA-1 activity in neuroblastoma cell lines, ALT vs non-ALT; type: cell-based, human; details: ALT vs TP53-mutated non-ALT neuroblastoma cell lines
Description: Neuroblastoma provides a unique cancer for studying the role of changes that lead to inactivation of p53, such as TP53 inactivating mutations. This is because, unlike many other cancers, neuroblastomas at diagnosis and before therapy most frequently are p53 functional and there is a very low incidence of TP53 mutations. However, the incidence of p53 loss-of-function (often by TP53 mutation) increases in progressive disease after therapy. Because PRIMA-1 was developed as a drug that could restore p53 function to tumors with TP53 mutations, we assessed the activity of PRIMA-1 in neuroblastoma cell lines. Our panel of neuroblastoma cell lines includes p53-functional cell lines and those that have p53 loss-of-function and lines with TP53 mutations. The panel includes cell lines with TP53 mutations that are telomerase-positive (high TERT expression) and also TERT-low ALT (C-circle-positive) cell lines.
We have determined that the C-circle assay (specific for ALT cancers) identifies cancers that are especially responsive to PRIMA-1. While PRIMA-1 and APR-246 are being developed to treat TP53-mutated caners, only a subset of the latter respond to the drug as shown in preclinical studies and in the early phase I clinical trials. […]

Compound: COCC1(CO)C(=O)C2CCN1CC2 (stereo not drawn) [PRIMA-1MET]
- cytotoxicity in hypoxia vs ambient air ([1]; 3 ALT neuroblastoma cell lines, 5% O2 compared with 20% O2): even great cytotoxicity
- sensitivity (survival fraction), ALT vs non-ALT neuroblastoma ([1]; 4 ALT+ vs 3 non-ALT TP53-mut cell lines, 5% O2): significantly more sensitive
- sensitivity (survival fraction), ALT vs TERT+ lymphoma [2]: more sensitive
- sensitivity (survival fraction), ALT vs non-ALT rhabdomyosarcoma [3]: more sensitive
- tumor volume, single agent relative to control [4]: greater amount of activity
- change of IC50 with kinase inhibitors [5]: greatly increases
- sensitivity by IC50 and IC90, ALT vs non-ALT cell lines ([6]; all tested histologies): significantly more sensitive
- ALT vs non-ALT difference in IC50/IC90 in hypoxia ([6]; bone marrow level hypoxia (5% O2) vs 20% O2): differences were greater
- NOXA expression ([7]; three ALT+ cell lines): NOXA expression during longer treatment
- p21 expression ([7]; three ALT+ cell lines): substantial increase
- NOXA expression ([7]; two non-ALT (TERT+) cell lines): very little increase
- p21 expression ([7]; two non-ALT (TERT+) cell lines): very little increase
- response to PRIMA-1MET after ATM knockdown [8]: hyper-resistance
- activity against ALT breast, colorectal, ovarian, lung cancer and leiomyosarcoma cell lines [9]: high activity
- plasma levels ([10]; at the maximally tolerated dose, out to ~12 hours): > 10000 ng/mL
- maximally tolerated dose ([10]; phase I, hematological malignancies and hormone-refractory prostate cancer): 60 μg/m^2
- bone marrow toxicity ([10]; phase I): not observed
- most common adverse events ([10]; phase I): dizziness, headache, confusion, and other neurological complications
- change of IC50 with kinase inhibitors [11]: little effect

Compound: O=C1C2CCN(CC2)C1(CO)CO [PRIMA-1]
- sensitivity of ALT cell lines to PRIMA-1 [12]: highly sensitive
- activity of PRIMA-1 in ALT vs non-ALT neuroblastoma [13]: significantly greater in ALT neuroblastoma cell lines; also recorded: significantly higher in ALT neuroblastoma
